Test results as given in ChEMBL document CHEMBL1139330, “Synthesis and neuropharmacological evaluation of esters of R(-)-N-alkyl-11-hydroxy-2-methoxynoraporphines” (Bioorg Med Chem Lett, 2009).
Calls of active or inactive are those of the source. The rule behind the calls is not given here.

Key:
[1] = Selectivity ratio of Ki for dopamine D1 receptor to Ki for dopamine D2 receptor in rat forebrain
D(2) dopamine receptor = D(2) dopamine receptor (Rattus norvegicus, UniProt P61169); assay: Displacement of [3H]nemonapride from dopamine D2 receptor in rat forebrain
Sequence of D(2) dopamine receptor (P61169 whole entry): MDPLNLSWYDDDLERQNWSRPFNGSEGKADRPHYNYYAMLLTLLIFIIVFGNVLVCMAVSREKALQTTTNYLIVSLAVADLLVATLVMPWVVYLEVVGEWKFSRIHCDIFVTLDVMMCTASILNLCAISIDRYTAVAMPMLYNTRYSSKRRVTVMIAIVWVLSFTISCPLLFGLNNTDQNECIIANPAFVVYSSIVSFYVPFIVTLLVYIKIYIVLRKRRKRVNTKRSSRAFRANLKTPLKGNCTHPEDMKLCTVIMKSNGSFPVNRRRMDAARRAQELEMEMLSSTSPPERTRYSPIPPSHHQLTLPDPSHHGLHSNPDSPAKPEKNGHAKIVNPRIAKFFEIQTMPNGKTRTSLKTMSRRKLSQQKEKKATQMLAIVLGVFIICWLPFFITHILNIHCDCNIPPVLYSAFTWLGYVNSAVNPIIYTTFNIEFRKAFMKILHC

D(1A) dopamine receptor = D(1A) dopamine receptor (Rattus norvegicus, UniProt P18901); assay: Displacement of [3H]SCH23390 from dopamine D1 receptor in rat forebrain
Sequence of D(1A) dopamine receptor (P18901 whole entry): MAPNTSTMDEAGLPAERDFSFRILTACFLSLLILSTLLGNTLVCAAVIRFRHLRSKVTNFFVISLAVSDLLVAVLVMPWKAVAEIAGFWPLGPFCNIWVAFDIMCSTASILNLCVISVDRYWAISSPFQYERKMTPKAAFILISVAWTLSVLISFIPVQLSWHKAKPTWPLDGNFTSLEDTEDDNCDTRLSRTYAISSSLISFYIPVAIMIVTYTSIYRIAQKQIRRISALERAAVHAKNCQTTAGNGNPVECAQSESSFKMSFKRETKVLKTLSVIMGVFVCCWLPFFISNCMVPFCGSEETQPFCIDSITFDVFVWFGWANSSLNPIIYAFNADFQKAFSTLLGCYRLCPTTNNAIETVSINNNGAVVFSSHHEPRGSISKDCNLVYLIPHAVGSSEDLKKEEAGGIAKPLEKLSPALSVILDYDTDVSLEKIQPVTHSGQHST

Rattus norvegicus [2] = assay: Induction of locomotor activity in adult rat at 4 umol/kg, ip after 12 to 24 hrs; assay type: functional, organism-based
Rattus norvegicus [3] = assay: Toxicity in adult rat assessed as induction of sedation at 4 umol/kg, ip after 12 to 20 hrs; assay type: organism-based; details: in vivo

CCCCC(=O)Oc1cccc2c1-c1cc(OC)cc3c1[C@@H](C2)N(C)CC3
ratio [1]: 8 | Ki (D(2) dopamine receptor): 192 nM | Ki (D(1A) dopamine receptor): 1480 nM

COc1cc2c3c(c1)-c1c(cccc1OC(C)=O)C[C@H]3N(C)CC2
ratio [1]: 3 | Ki (D(2) dopamine receptor): 165 nM | Ki (D(1A) dopamine receptor): 526 nM

COc1cc2c3c(c1)-c1c(O)cccc1C[C@H]3N(C)CC2
ratio [1]: 0.2

CCCCC(=O)Oc1cccc2c1-c1cccc3c1[C@@H](C2)N(CCC)CC3
ratio [1]: > 58 | Ki (D(1A) dopamine receptor): > 20000 nM

CCCN1CCc2cc(OC)cc3c2[C@H]1Cc1cccc(O)c1-3
ratio [1]: 38

CCCCC(=O)Oc1cccc2c1-c1cc(OC)cc3c1[C@@H](C2)N(CCC)CC3
Activity (Rattus norvegicus [2]): inactive | ratio [1]: > 112 | Ki (D(2) dopamine receptor): 89 nM | Ki (D(1A) dopamine receptor): > 10000 nM | Activity (Rattus norvegicus [3]): Toxic

CCCN1CCc2cccc3c2[C@H]1Cc1cccc(OC(C)=O)c1-3
ratio [1]: > 138 | Ki (D(1A) dopamine receptor): > 10000 nM

CCCN1CCc2cc(OC)cc3c2[C@H]1Cc1cccc(OC(C)=O)c1-3
Activity (Rattus norvegicus [2]): Active | ratio [1]: > 529 | Ki (D(2) dopamine receptor): 18.9 nM | Ki (D(1A) dopamine receptor): > 10000 nM

CN1CCc2cccc3c2[C@H]1Cc1ccc(O)c(O)c1-3 [APOMORPHINE]
ratio [1]: 532
